Measured values taken from ChEMBL document CHEMBL3616370, “Pandalisines A and B, novel indolizidine alkaloids from the leaves of Pandanus utilis” (Bioorg Med Chem Lett, 2015).
Active and inactive are the calls of the source.

How the values were obtained:
Assay type in all cases: functional, cell-based
A549 = assay: Cytotoxicity against human A549 cells at 60 ug/ml after 72 hrs by MTT assay
HepG2 = assay: Cytotoxicity against human HepG2 cells at 60 ug/ml after 72 hrs by MTT assay
MDA-MB-231 = assay: Cytotoxicity against human MDA-MB-231 cells at 60 ug/ml after 72 hrs by MTT assay

Measured: Activity

CC1=C/C(=C2\CCCN3CCC[C@H]23)OC1=O
inactive: all assays above

CC1=C/C(=C2/CCCN3CCC[C@H]23)OC1=O
inactive: all assays above
